According to US10792263B2, “Method of treating an individual having a microbial infection” (Sun Yat-sen University, priority 2012, dated 2020):
Where two headings read alike, the source gives them in different places.

Assays:
[1] = tested on: E. coli K12 BW25113, E. coli clinical strain Y17, Vibro alginolyticus, Vibro parahaemolyticus, Pseudomonas aeruginosa and Staphylococcus aureus; conditions: 100 μL serum/plasma of different animals plus 100 mM glycine, 4 hour
Procedure: (§1) Sample preparation: Single colonies of the parent strain E. coli K12 BW25113 are picked from Luria-Bertani (LB) agar plate, inoculated into 5 mL LB medium and incubated with shaking at 200 rpm, 37° C. for 16 hours. Cultures are then diluted 1:100 (v/v) in 200 mL fresh LB medium and grow to an OD600 of 1.0 at 37° C. with shaking. Cells are collected by centrifugation at 8000 rpm for 10 minutes at 4° C. and washed with 0.85% saline once.
A variety of bacteria (E. coli K12 BW25113, E. coli clinical strain Y17, Vibro alginolyticus, Vibro parahaemolyticus, Pseudomonas aeruginosa and Staphylococcus aureus) are cultured as described in Example 1.1. Aliquots of 3 mL bacteria are collected with OD600 of 1.0. Then, 100 μL serum/plasma from different animals or 100 μL serum/plasma of different animals plus 100 mM glycine are added and 100 mM glycine alone is used a control. Cells are cultured for 4 hour at 37° C. with shaking at 200 rpm. Bacteria are resuspended with 1 mL of saline. Absorbance is measured at 600 nm.

[2] = tested on: E. coli K12 BW25113, E. coli clinical strain Y17, beta-hemolytic Streptococcus, Vibro alginolyticus, Vibro parahaemolyticus, Pseudomonas aeruginosa and …; conditions: 125-175 μL human serum plus 100-150 mM glycine, 4 hours
Procedure: as §1

E. coli K12 BW25113 [3] = conditions: for increase of bactericidal effect, serum plus glycine versus serum: 100 μL human serum plus 100 mM glycine
Procedure: as §1
To understand whether glycine enhances the bactericidal effect of serum, experiments are carried out in 3 scenarios: the same volume of human serum mixed with different concentrations of glycine, different volumes of human serum mixed with the same concentration of glycine, and these mixtures are treated for different incubation periods.
Bacterial cells are prepared according to Example 1.1. Glycine is added to a final concentration of 0, 5, 10, 30, 50 and 100 mM and the mixtures are cultured for 1 hour at 37° C. with shaking at 200 rpm. Then 100 μL of human serum or saline are added as test and control groups, respectively. Bacteria are cultured for 2 hours and collected by centrifugation. Cells are resuspended with 1 mL of saline. Live bacterial cells are counted on LB agar plate. Survival rate is calculated as follows: number of live bacteria cells after treatment with different concentrations of glycine supplementation/number of live bacteria cells after treatment with saline×100%.
Bacterial samples are prepared and added with 100 mM glycine and cultured for 1 hour at 37° C. with shaking at 200 rpm. Then 0, 20, 40, 60, 80 or 100 μL human serum is added and cultured for 2 hours at 37° C. with shaking at 200 rpm. The controls are not mixed with glycine but only with different volumes of human serum. Bacteria are collected by centrifugation and resuspended with 1 mL of saline for spot-plate counting. The survival rate is calculated as follows: the number of live bacteria cells after treatment with glycine plus different volumes of human serum/the number of live cells after treatment with only human serum×100%.
The prepared bacterial samples are divided into 4 groups and treated separately as follows: with 100 mM glycine, 100 μL human serum, 100 μL human serum plus 100 mM glycine or saline alone as control. The mixtures are cultured for 0.5, 1, 2, 3, and 4 hours at 37° C. with shaking at 200 rpm. Bacteria are collected by centrifugation and resuspended in 1 mL saline. Bacteria are counted using LB agar plates. The survival rate is calculated as follows: the number of live bacteria after treatment with serum and/or glycine in different times/the number of live bacteria in the saline control group×100%.

[4] = tested on: E. coli clinical isolate Y17; conditions: mice, 6 times, blood at 48 hours
Procedure: (§2) A total of 15 6-week-old mice (purchased from the Laboratory Animals Center of Sun Yat-sen University) are randomly divided into three groups: saline control group and two treatment groups are administered with 3.25 or 6.5 mg glycine/mouse. The compound is intravenously administered at 3.25 or 6.5 mg glycine/injection/mouse every 12 hours and 6 times in total. Mice are intravenously injected 1×10^6 E. coli K12 BW25113 or E. coli clinical isolate Y17 at 12 hours after the last administration of glycine. Blood is withdrawn from mouse tail vein at 48 hours. The clearance of bacteria is determined by plate counting.

E. coli K12 BW25113 [5] = conditions: mice, 6 times, blood at 48 hours
Procedure: as §2

E. coli = assay: Human serum bactericidal assay with threonine, OD600 survival rate; type: cell-based, Escherichia coli; conditions: 2 hours
Procedure: The prepared bacterial cells are divided to four groups. […] Absorbance is measured at 600 nm Survival rate is calculated as follows: the OD in groups after treatment with serum, threonine or serum plus threonine/the OD in the control group treated with saline×100%. […] Certain bactericidal effect is detected in the group with serum alone. Compared with the group with serum alone, the group with serum plus threonine has a significant 1.5-fold increase of bactericidal effect.

[6] = 3.25 mg glycine/injection i.v. every 12 hours
[7] = 6.5 mg glycine/injection i.v. every 12 hours

Structure (SMILES): NCC(=O)O [glycine]
- increase of bactericidal effect of animal serum/plasma, maximum [1]: ~10 fold
- increase of bactericidal effect of animal serum/plasma, minimum [1]: ≥ 1.5 fold
- increase of serum bactericidal effect, lower bound over all bacteria tested [2]: more than 1 fold
- increase of serum bactericidal effect, maximum over all bacteria tested [2]: up to 4.13 fold
- increase of the serum bactericidal effect (E. coli K12 BW25113 [3]; 5 mM glycine, 1 h preincubation, then 100 μL human serum for 2 hours, 37° C.): 1.36 fold
- elevation of serum bactericidal effect, serum volume series (E. coli K12 BW25113 [3]; 100 mM glycine plus 100 μL human serum, 2 hours, versus human serum only): 86 fold
- bactericidal effect of glycine alone (E. coli K12 BW25113 [3]; 100 mM glycine without serum, 0.5 to 4 hours): no bactericidal effect
- increase of the serum bactericidal effect (highest effect) (E. coli K12 BW25113 [3]; 100 mM glycine, 1 h preincubation, then 100 μL human serum for 2 hours, 37° C.): ~86 fold
- increase of bactericidal effect, serum plus glycine versus serum (E. coli K12 BW25113 [3]; after 0.5 hours): 2 fold
- increase of bactericidal effect, serum plus glycine versus serum (E. coli K12 BW25113 [3]; after 1 hour): 77 fold
- increase of bactericidal effect, serum plus glycine versus serum (E. coli K12 BW25113 [3]; after 4 hours): 120 fold
- Clearance rate [4, 6]: 32.95%
- Clearance rate [4, 7]: 52.53%
- Clearance rate (E. coli K12 BW25113 [5]; [6]): 89.32%
- Clearance rate (E. coli K12 BW25113 [5]; [7]): 96.85%

Structure (SMILES): C[C@@H](O)[C@H](N)C(=O)O [threonine]
- bactericidal effect of threonine alone (E. coli; 100 mM threonine without serum): no bactericidal effect
- increase of bactericidal effect, serum plus threonine versus serum alone (E. coli; 100 μL human serum plus 100 mM threonine): 1.5 fold
